Measurements published in patent US10844077B2, “Thiazolyl-containing compounds for treating proliferative diseases” (Dana-Farber Cancer Institute, Inc., priority 2014, dated 2020).
Where “and” joins values, the source holds several entries; their conditions need not be identical. Equal entries are not always repeated.

Columns and labels:
Experiment in all cases: KINATIV assay
Assay type in all cases: cell-based
Conditions in all cases: 1 μM, 90 minutes, BCWM.1 cells
[1] = target: SRPK1 (Homo sapiens (Human), UniProt Q96SB4)
Method in brief: (§1)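 Steps: harvest and lyse cells; label lysate directly with ATP-biotin probe; identify and quantitate probe-bound kinases by ACTIVX.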

[2] = target: FRAP (Homo sapiens (Human), UniProt P42345)
Method in brief: as §1

[3] = target: MLKL (Homo sapiens (Human), UniProt Q8NB16)
Method in brief: as §1

[4] = target: GSK3A (Homo sapiens (Human), UniProt P49840)
Method in brief: as §1

[5] = target: PAN3 (Homo sapiens (Human), UniProt Q58A45)
Method in brief: as §1

[6] = target: GCN2 (Homo sapiens (Human), UniProt Q9P2K8)
Method in brief: as §1

[7] = system: MST4, YSK1
Method in brief: as §1

[8] = target: NEK8 (Homo sapiens (Human), UniProt Q86SG6)
Method in brief: as §1

[9] = target: YSK1 (Homo sapiens (Human), UniProt O00506)
Method in brief: as §1

[10] = target: CaMK1d (Homo sapiens (Human), UniProt Q8IU85)
Method in brief: as §1

[11] = target: PIP4K2C (Homo sapiens (Human), UniProt Q8TBX8)
Method in brief: as §1

[12] = system: KSR1, KSR2
Method in brief: as §1

[13] = system: MARK2, MARK3
Method in brief: as §1

[14] = target: FRK (Homo sapiens (Human), UniProt P42685)
Method in brief: as §1

[15] = target: PEK (Homo sapiens (Human), UniProt Q9NZJ5)
Method in brief: as §1

[16] = target: BTK (Homo sapiens (Human), UniProt Q06187)
Method in brief: as §1

[17] = target: TAO2 (Homo sapiens (Human), UniProt Q9UL54)
Method in brief: as §1

[18] = target: CaMK2g (Homo sapiens (Human), UniProt Q13555)
Method in brief: as §1

[19] = target: JAK1 (Homo sapiens (Human), UniProt P23458)
Method in brief: as §1

[20] = target: MAST3 (Homo sapiens (Human), UniProt O60307)
Method in brief: as §1

[21] = target: VRK2 (Homo sapiens (Human), UniProt Q86Y07)
Method in brief: as §1

[22] = target: PHKg2 (Homo sapiens (Human), UniProt P15735)
Method in brief: as §1

[23] = target: PYK2 (Homo sapiens (Human), UniProt Q14289)
Method in brief: as §1

[24] = target: CK1a (Homo sapiens (Human), UniProt P48729)
Method in brief: as §1

[25] = target: LYN (Homo sapiens (Human), UniProt P07948)
Method in brief: as §1

[26] = system: MAP3K15, MAP3K5, MAP3K6
Method in brief: as §1

[27] = target: EphB2 (Homo sapiens (Human), UniProt P29323)
Method in brief: as §1

[28] = system: MAST1, MAST2
Method in brief: as §1

[29] = system: MSK1, MSK2 domain1
Method in brief: as §1

[30] = target: MST4 (Homo sapiens (Human), UniProt Q9P289)
Method in brief: as §1

[31] = system: TAO1, TAO3
Method in brief: as §1

[32] = system: MST1, MST2
Method in brief: as §1

[33] = target: SRC (Homo sapiens (Human), UniProt P12931)
Method in brief: as §1

[34] = target: MAP3K3 (Homo sapiens (Human), UniProt Q99759)
Method in brief: as §1

[35] = system: FYN, SRC, YES
Method in brief: as §1

[36] = target: MAP3K5 (Homo sapiens (Human), UniProt Q99683)
Method in brief: as §1

[37] = target: BRAF (Homo sapiens (Human), UniProt P15056)
Method in brief: as §1

[38] = system: ABL, ARG
Method in brief: as §1

[39] = system: PKD1, PKD2
Method in brief: as §1

[40] = system: SRPK1, SRPK2
Method in brief: as §1

[41] = target: MSK2 domain1 (Homo sapiens (Human), UniProt O75676)
Method in brief: as §1

[42] = target: CK2a2 (Homo sapiens (Human), UniProt P19784)
Method in brief: as §1

Sequence of PIP4K2C (Q8TBX8 whole entry): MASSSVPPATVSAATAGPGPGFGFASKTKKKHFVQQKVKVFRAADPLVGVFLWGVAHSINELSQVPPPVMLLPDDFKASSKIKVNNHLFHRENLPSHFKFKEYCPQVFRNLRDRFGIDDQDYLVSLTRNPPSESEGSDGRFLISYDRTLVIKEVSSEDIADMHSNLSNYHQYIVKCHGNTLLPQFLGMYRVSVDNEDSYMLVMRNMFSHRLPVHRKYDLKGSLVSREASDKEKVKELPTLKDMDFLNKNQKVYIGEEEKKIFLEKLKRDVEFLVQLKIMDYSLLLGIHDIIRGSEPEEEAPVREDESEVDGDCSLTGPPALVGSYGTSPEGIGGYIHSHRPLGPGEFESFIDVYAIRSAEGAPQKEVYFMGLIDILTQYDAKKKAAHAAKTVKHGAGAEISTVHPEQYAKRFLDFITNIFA
Sequence of BTK (Q06187 whole entry, looked up): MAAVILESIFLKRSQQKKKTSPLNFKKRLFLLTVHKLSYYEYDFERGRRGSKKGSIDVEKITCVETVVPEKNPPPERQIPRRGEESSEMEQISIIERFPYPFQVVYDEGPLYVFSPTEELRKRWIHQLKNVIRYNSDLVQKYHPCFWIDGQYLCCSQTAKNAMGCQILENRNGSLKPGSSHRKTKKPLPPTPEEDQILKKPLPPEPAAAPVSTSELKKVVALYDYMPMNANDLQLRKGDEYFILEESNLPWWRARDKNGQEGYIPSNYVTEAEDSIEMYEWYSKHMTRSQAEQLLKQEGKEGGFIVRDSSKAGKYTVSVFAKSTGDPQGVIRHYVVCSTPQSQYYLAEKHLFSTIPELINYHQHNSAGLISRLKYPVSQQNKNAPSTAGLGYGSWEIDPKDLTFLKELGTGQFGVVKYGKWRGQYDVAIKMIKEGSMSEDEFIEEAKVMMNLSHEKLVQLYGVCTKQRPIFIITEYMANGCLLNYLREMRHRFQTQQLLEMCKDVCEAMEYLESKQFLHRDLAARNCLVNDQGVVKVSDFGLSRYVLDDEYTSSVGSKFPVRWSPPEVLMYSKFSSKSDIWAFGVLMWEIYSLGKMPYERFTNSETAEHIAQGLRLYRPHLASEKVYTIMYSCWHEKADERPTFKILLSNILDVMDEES
Sequence of NEK8 (Q86SG6 whole entry): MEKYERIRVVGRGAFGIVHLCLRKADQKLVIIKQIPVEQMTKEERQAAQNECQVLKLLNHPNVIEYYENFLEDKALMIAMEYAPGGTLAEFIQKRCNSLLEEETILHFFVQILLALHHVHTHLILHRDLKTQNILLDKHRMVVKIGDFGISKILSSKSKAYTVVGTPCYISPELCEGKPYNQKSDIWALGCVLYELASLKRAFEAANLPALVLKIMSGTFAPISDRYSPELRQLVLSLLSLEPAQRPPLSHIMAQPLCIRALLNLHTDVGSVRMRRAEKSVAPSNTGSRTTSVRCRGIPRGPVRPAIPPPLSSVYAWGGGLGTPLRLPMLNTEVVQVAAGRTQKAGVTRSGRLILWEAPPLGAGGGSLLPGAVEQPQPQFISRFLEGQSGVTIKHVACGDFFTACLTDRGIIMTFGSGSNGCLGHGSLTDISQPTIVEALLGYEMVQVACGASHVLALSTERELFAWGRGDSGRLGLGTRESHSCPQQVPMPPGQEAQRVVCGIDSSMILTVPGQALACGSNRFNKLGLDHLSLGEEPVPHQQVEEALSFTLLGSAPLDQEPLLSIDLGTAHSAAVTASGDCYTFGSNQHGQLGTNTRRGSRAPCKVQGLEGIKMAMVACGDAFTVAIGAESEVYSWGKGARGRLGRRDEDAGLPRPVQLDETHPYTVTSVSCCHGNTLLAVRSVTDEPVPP
Sequence of CK2a2 (P19784 whole entry): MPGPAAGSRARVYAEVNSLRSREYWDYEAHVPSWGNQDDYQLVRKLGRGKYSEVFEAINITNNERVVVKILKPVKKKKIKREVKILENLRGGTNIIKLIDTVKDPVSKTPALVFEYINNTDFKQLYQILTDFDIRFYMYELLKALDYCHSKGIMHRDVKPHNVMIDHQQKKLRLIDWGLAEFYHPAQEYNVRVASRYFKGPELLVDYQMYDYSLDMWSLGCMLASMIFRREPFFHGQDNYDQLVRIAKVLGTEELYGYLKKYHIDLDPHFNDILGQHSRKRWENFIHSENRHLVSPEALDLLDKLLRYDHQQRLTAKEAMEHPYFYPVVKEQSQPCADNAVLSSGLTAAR
Sequence of YSK1 (O00506 whole entry): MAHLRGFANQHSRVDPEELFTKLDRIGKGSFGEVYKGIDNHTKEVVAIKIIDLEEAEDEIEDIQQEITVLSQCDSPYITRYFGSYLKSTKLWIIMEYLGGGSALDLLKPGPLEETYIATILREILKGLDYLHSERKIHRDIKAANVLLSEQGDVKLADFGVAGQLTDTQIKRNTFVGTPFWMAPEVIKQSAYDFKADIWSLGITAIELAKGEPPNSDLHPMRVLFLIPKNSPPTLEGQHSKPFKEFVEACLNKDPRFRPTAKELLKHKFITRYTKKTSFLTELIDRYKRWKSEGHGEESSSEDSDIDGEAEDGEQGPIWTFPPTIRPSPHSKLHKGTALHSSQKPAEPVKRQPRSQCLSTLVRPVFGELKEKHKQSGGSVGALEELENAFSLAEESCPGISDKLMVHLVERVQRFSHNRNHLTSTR
Sequence of SRC (P12931 whole entry, looked up): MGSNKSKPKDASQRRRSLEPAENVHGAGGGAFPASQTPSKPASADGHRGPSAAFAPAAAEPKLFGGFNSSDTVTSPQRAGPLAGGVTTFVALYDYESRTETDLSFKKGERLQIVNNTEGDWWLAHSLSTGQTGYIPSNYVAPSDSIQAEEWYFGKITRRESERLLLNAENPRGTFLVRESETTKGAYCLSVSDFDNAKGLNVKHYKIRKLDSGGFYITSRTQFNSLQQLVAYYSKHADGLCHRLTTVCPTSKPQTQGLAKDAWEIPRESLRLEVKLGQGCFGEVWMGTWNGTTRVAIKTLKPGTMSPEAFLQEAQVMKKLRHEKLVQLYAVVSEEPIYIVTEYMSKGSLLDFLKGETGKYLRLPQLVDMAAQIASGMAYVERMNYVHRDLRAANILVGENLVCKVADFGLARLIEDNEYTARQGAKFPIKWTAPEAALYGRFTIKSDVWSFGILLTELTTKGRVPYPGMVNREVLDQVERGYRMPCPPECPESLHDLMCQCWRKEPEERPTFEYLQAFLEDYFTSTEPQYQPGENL
Sequence of PEK (Q9NZJ5 30-1116): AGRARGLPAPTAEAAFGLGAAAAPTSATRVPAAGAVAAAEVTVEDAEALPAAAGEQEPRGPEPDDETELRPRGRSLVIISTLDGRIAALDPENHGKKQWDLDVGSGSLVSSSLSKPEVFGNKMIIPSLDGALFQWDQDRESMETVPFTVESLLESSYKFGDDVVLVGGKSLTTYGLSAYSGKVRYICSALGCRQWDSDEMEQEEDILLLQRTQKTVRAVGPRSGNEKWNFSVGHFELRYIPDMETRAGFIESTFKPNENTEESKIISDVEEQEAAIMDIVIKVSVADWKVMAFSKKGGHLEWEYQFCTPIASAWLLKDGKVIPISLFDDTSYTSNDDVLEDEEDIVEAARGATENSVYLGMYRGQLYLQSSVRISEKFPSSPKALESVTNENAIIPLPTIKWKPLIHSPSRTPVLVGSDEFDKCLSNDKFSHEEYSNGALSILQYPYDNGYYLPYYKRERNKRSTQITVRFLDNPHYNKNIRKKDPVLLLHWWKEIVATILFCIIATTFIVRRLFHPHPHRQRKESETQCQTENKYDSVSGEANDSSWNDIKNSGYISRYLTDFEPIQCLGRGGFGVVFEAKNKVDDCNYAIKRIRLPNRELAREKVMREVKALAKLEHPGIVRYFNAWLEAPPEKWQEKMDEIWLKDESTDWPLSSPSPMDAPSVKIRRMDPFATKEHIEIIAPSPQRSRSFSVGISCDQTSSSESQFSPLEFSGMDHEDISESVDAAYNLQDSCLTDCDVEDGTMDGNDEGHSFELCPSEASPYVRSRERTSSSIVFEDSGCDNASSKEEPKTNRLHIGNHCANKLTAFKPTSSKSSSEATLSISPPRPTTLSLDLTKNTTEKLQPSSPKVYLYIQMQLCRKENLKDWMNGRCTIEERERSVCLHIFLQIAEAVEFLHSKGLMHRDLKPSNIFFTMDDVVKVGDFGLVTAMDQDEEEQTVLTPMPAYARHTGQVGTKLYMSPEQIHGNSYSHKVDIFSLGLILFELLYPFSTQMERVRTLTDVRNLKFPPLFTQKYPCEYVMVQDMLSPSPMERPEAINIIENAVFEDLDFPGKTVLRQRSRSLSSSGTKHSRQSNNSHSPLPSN
Sequence of LYN (P07948 whole entry): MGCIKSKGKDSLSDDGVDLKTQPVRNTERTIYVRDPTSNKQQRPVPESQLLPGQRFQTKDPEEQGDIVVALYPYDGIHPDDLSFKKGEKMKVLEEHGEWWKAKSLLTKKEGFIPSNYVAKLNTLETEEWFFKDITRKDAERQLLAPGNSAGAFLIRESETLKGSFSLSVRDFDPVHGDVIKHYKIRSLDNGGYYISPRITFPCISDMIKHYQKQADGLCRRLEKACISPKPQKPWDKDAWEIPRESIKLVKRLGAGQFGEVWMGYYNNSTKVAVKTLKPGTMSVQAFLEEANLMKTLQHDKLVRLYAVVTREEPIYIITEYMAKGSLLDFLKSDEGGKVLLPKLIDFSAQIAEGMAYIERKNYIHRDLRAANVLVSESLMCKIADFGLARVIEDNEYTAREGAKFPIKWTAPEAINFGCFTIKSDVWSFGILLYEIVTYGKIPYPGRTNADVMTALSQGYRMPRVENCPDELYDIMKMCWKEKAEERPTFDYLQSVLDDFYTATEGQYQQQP
Sequence of CK1a (P48729 whole entry): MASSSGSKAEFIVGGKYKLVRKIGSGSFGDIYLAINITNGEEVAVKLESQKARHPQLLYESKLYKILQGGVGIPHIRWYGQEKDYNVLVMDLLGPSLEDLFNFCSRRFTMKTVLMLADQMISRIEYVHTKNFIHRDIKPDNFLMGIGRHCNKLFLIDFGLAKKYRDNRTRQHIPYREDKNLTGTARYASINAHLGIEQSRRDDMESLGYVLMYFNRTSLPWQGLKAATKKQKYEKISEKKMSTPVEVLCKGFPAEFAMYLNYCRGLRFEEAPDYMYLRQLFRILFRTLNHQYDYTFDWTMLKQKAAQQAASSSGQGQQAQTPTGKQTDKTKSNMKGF

C=CC(=O)N1CCC(CNc2nccc(Nc3ncc(C(=O)Nc4c(C)cccc4C)s3)n2)C1 (racemic) [Example I-8]
% change of MS signal compared to control sample [1]: −19.5% | % change of MS signal compared to control sample [2]: −5.2% | % change of MS signal compared to control sample [3]: −17.5% | % change of MS signal compared to control sample [4]: −14.2% | % change of MS signal compared to control sample [5]: 18.3% | % change of MS signal compared to control sample [6]: −20.3% and −13.6% | % change of MS signal compared to control sample [7]: 19.3% | % change of MS signal compared to control sample [8]: 13.1% | % change of MS signal compared to control sample [9]: −29.2% | % change of MS signal compared to control sample [10]: −14.1% and −8.7% | % change of MS signal compared to control sample [11]: 97.6% and 85.7% | % change of MS signal compared to control sample [12]: −8.8% | % change of MS signal compared to control sample [13]: 7.5% | % change of MS signal compared to control sample [14]: 95.3% | % change of MS signal compared to control sample [15]: 3.3% | % change of MS signal compared to control sample [16]: 98.0% and >90% | % change of MS signal compared to control sample [17]: −4.9% | % change of MS signal compared to control sample [18]: −9.4% | % change of MS signal compared to control sample [19]: −1.9% | % change of MS signal compared to control sample [20]: −8.3% | % change of MS signal compared to control sample [21]: 3.6% | % change of MS signal compared to control sample [22]: 6.4% | % change of MS signal compared to control sample [23]: 20.3% and 25.5% | % change of MS signal compared to control sample [24]: 14.9% | % change of MS signal compared to control sample [25]: >97% and >90% | % change of MS signal compared to control sample [26]: 2.2% | % change of MS signal compared to control sample [27]: >90% | % change of MS signal compared to control sample [28]: −32.5% | % change of MS signal compared to control sample [29]: −29.7% | % change of MS signal compared to control sample [30]: −0.8% | % change of MS signal compared to control sample [31]: −8.7% | % change of MS signal compared to control sample [32]: 8.7% | % change of MS signal compared to control sample [33]: >90% | % change of MS signal compared to control sample [34]: 7.9% | % change of MS signal compared to control sample [35]: 97.9% | % change of MS signal compared to control sample [36]: −0.7% | % change of MS signal compared to control sample [37]: 11.1% | % change of MS signal compared to control sample [38]: >90% and >97% | % change of MS signal compared to control sample [39]: −15.3% | % change of MS signal compared to control sample [40]: 33.2% | % change of MS signal compared to control sample [41]: −47.7% | % change of MS signal compared to control sample [42]: 27.5%

C=CC(=O)N1CCC(Cn2ccc(Nc3ncc(C(=O)Nc4c(C)cccc4Cl)s3)n2)C1 (stereo not shown) [II-1]
% change of MS signal compared to control sample [1]: −4.7% | % change of MS signal compared to control sample [2]: 8.6% | % change of MS signal compared to control sample [3]: −0.8% | % change of MS signal compared to control sample [4]: −11.8% | % change of MS signal compared to control sample [5]: −7.0% | % change of MS signal compared to control sample [6]: −6.2% and −4.1% | % change of MS signal compared to control sample [7]: 9.2% | % change of MS signal compared to control sample [8]: 6.5% | % change of MS signal compared to control sample [9]: −27.4% | % change of MS signal compared to control sample [10]: −7.9% and −2.8% | % change of MS signal compared to control sample [12]: −8.7% | % change of MS signal compared to control sample [13]: −10.1% | % change of MS signal compared to control sample [14]: 84.0% | % change of MS signal compared to control sample [15]: −31.0% | % change of MS signal compared to control sample [16]: 97.1% and >90% | % change of MS signal compared to control sample [17]: −17.9% | % change of MS signal compared to control sample [18]: −17.5% | % change of MS signal compared to control sample [19]: 5.4% | % change of MS signal compared to control sample [20]: 3.8% | % change of MS signal compared to control sample [21]: 5.2% | % change of MS signal compared to control sample [22]: −9.1% | % change of MS signal compared to control sample [24]: −14.4% | % change of MS signal compared to control sample [25]: 88.1% and >90% | % change of MS signal compared to control sample [26]: 7.5% | % change of MS signal compared to control sample [27]: >90% | % change of MS signal compared to control sample [28]: −81.3% | % change of MS signal compared to control sample [29]: −37.4% | % change of MS signal compared to control sample [30]: 21.1% | % change of MS signal compared to control sample [31]: −17.2% | % change of MS signal compared to control sample [32]: 3.1% | % change of MS signal compared to control sample [33]: >90% | % change of MS signal compared to control sample [34]: 13.7% | % change of MS signal compared to control sample [35]: 88.1% | % change of MS signal compared to control sample [36]: −22.9% | % change of MS signal compared to control sample [37]: 6.9% | % change of MS signal compared to control sample [38]: 76.1% and 39.5% | % change of MS signal compared to control sample [39]: −19.8% | % change of MS signal compared to control sample [40]: 0.0% | % change of MS signal compared to control sample [41]: −33.9% | % change of MS signal compared to control sample [42]: 13.8%

C=CC(=O)N1CC[C@@H](Nc2nccc(Nc3ncc(C(=O)Nc4c(C)cccc4C)s3)n2)C1 [Example I-4]
% change of MS signal compared to control sample [1]: −2.1% | % change of MS signal compared to control sample [2]: 4.9% | % change of MS signal compared to control sample [3]: −9.4% | % change of MS signal compared to control sample [4]: −10.5% | % change of MS signal compared to control sample [5]: −29.0% | % change of MS signal compared to control sample [6]: −11.0% and −5.7% | % change of MS signal compared to control sample [7]: 20.5% | % change of MS signal compared to control sample [8]: 14.6% | % change of MS signal compared to control sample [9]: −58.5% | % change of MS signal compared to control sample [10]: −12.5% and −4.0% | % change of MS signal compared to control sample [11]: 71.0% and 43.0% | % change of MS signal compared to control sample [12]: −8.9% | % change of MS signal compared to control sample [13]: −31.5% | % change of MS signal compared to control sample [14]: 87.5% | % change of MS signal compared to control sample [15]: −44.9% | % change of MS signal compared to control sample [16]: 97.0% and >90% | % change of MS signal compared to control sample [17]: −7.0% | % change of MS signal compared to control sample [18]: −19.8% | % change of MS signal compared to control sample [19]: −5.7% | % change of MS signal compared to control sample [20]: 2.0% | % change of MS signal compared to control sample [21]: −30.6% | % change of MS signal compared to control sample [22]: −15.6% | % change of MS signal compared to control sample [23]: 27.3% | % change of MS signal compared to control sample [24]: −41.3% | % change of MS signal compared to control sample [25]: >97% and >90% | % change of MS signal compared to control sample [26]: 2.8% | % change of MS signal compared to control sample [27]: >90% | % change of MS signal compared to control sample [28]: −62.1% | % change of MS signal compared to control sample [29]: −28.9% | % change of MS signal compared to control sample [30]: −13.2% | % change of MS signal compared to control sample [31]: 7.6% | % change of MS signal compared to control sample [32]: 3.8% | % change of MS signal compared to control sample [33]: >90% | % change of MS signal compared to control sample [34]: −0.7% | % change of MS signal compared to control sample [35]: 97.4% | % change of MS signal compared to control sample [36]: −10.7% | % change of MS signal compared to control sample [37]: 17.8% | % change of MS signal compared to control sample [38]: >90% and 91.7% | % change of MS signal compared to control sample [39]: −4.7% | % change of MS signal compared to control sample [40]: −14.7% | % change of MS signal compared to control sample [41]: −9.6% | % change of MS signal compared to control sample [42]: −3.6%
